Patent publication US6440964B1, “Compositions and methods for treating ophthalmic and otic infections” (priority 1998, dated 2002)
Converted amounts (≈) assume the structure as drawn. Like-named read-outs stand apart in the source and are kept apart here.

Assays:
Microbacterium otitidis = assay: In vitro activity (MIC) by agar and broth dilution methods against clinical isolates; assay type: cell-based; conditions: read-out: minimum inhibitory concentration (MIC)
Procedure: (§1) The activity levels were determined as MIC (minimum inhibitory concentration) values. In order to compare the activity of the compounds of the present invention to other antibiotics, MIC values for representatives quinolones, aminoglycosides, β-lactams and other types of antibiotics were also determined. […] The MCC numbers (e.g., “MCC 10647”) represent separate clinical isolates of the two Microbacterium species tested.

Microbacterium alconae = assay: as above; assay type: cell-based; conditions: read-out: minimum inhibitory concentration (MIC)
Procedure: as §1

MIC (Microbacterium otitidis; clinical isolate MCC 10647)	MIC (Microbacterium otitidis; clinical isolate MCC 10810)	MIC (Microbacterium otitidis; clinical isolate MCC 10990)	MIC (Microbacterium otitidis; clinical isolate MCC 11495)	MIC (Microbacterium otitidis; clinical isolate MCC 11676)	MIC (Microbacterium alconae; clinical isolate MCC 11316)	MIC (Microbacterium alconae; clinical isolate MCC 11558)	MIC (Microbacterium alconae; clinical isolate MCC 11639)	MIC (Microbacterium alconae; clinical isolate MCC 11653)	MIC (Microbacterium alconae; clinical isolate MCC 11699)	Compound
1 µg/mL (≈ 3.09 µM)	1 µg/mL (≈ 3.09 µM)	1 µg/mL (≈ 3.09 µM)	1 µg/mL (≈ 3.09 µM)	1 µg/mL (≈ 3.09 µM)	16 µg/mL (≈ 49.5 µM)	16 µg/mL (≈ 49.5 µM)	16 µg/mL (≈ 49.5 µM)	16 µg/mL (≈ 49.5 µM)	16 µg/mL (≈ 49.5 µM)	O=C(N[C@H](CO)[C@H](O)c1ccc([N+](=O)[O-])cc1)C(Cl)Cl [Chloramphenicol]
0.03 µg/mL (≈ 0.0706 µM)	0.03 µg/mL (≈ 0.0706 µM)	0.03 µg/mL (≈ 0.0706 µM)	0.03 µg/mL (≈ 0.0706 µM)	0.03 µg/mL (≈ 0.0706 µM)	4 µg/mL (≈ 9.41 µM)	4 µg/mL (≈ 9.41 µM)	4 µg/mL (≈ 9.41 µM)	4 µg/mL (≈ 9.41 µM)	4 µg/mL (≈ 9.41 µM)	CCC[C@@H]1C[C@@H](C(=O)N[C@@H]([C@H]2O[C@H](SC)[C@H](O)[C@@H](O)[C@H]2O)[C@H](C)Cl)N(C)C1 [Clindamycin]
0.03 µg/mL (≈ 0.0409 µM)	0.03 µg/mL (≈ 0.0409 µM)	0.03 µg/mL (≈ 0.0409 µM)	0.03 µg/mL (≈ 0.0409 µM)	0.03 µg/mL (≈ 0.0409 µM)	1 µg/mL (≈ 1.36 µM)	2 µg/mL (≈ 2.73 µM)	2 µg/mL (≈ 2.73 µM)	0.5 µg/mL (≈ 0.681 µM)	0.5 µg/mL (≈ 0.681 µM)	CC[C@H]1OC(=O)[C@H](C)[C@@H](O[C@H]2C[C@@](C)(OC)[C@@H](O)[C@H](C)O2)[C@H](C)[C@@H](O[C@@H]2O[C@H](C)C[C@H](N(C)C)[C@H]2O)[C@](C)(O)C[C@@H](C)C(=O)[C@H](C)[C@@H](O)[C@]1(C)O [Erythromycin]
16 µg/mL (≈ 44.3 µM)	32 µg/mL (≈ 88.6 µM)	8 µg/mL (≈ 22.1 µM)	16 µg/mL (≈ 44.3 µM)	8 µg/mL (≈ 22.1 µM)	4 µg/mL (≈ 11.1 µM)	4 µg/mL (≈ 11.1 µM)	4 µg/mL (≈ 11.1 µM)	4 µg/mL (≈ 11.1 µM)	4 µg/mL (≈ 11.1 µM)	CC1COc2c(N3CCN(C)CC3)c(F)cc3c(=O)c(C(=O)O)cn1c23 (centres unmarked) [Ofloxacin]

Compound	MIC (Microbacterium otitidis; clinical isolate MCC 10647)	MIC (Microbacterium otitidis; clinical isolate MCC 10810)	MIC (Microbacterium otitidis; clinical isolate MCC 10990)	MIC (Microbacterium otitidis; clinical isolate MCC 11495)	MIC (Microbacterium otitidis; clinical isolate MCC 11676)	MIC (Microbacterium alconae; clinical isolate MCC 11316)	MIC (Microbacterium alconae; clinical isolate MCC 11558)	MIC (Microbacterium alconae; clinical isolate MCC 11639)	MIC (Microbacterium alconae; clinical isolate MCC 11653)	MIC (Microbacterium alconae; clinical isolate MCC 11699)
Cc1onc(-c2ccccc2)c1C(=O)N[C@@H]1C(=O)N2[C@@H]1SC(C)(C)[C@@H]2C(=O)O [Oxacillin]	2 µg/mL (≈ 4.98 µM)	4 µg/mL (≈ 9.96 µM)	2 µg/mL (≈ 4.98 µM)	4 µg/mL (≈ 9.96 µM)	2 µg/mL (≈ 4.98 µM)	8 µg/mL (≈ 19.9 µM)	16 µg/mL (≈ 39.9 µM)	32 µg/mL (≈ 79.7 µM)	32 µg/mL (≈ 79.7 µM)	32 µg/mL (≈ 79.7 µM)
